The text below walks through data of US9655980B2, “Theranostic platform for targeted cancer therapy and drug delivery monitoring” (University of Pittsburgh—Of the Commonwealth System of …, priority 2012, dated 2017).

Several values for one entry are separate records, joined by “and”; a condition that tells them apart may be missing. Equal values may be shown once.

Data set [1] relates to wild-type mouse malignant astrocytoma DBT (wt-DBT) cells. In words: In vitro cytotoxicity, hemocytometer-based trypan blue dye exclusion. Type of data set: cell-based. To be noted: for cell viability: 2×10^−7 and 1×10^−5 M, 48 h. From the text: FIG. 4 is a graph showing the results cell viability tests of QR-G1-COOH and QR-G2-COOH on the wt-DBT cell line. Values are presented as mean±standard deviation.
The in vitro cytotoxicity of QR-G1-COOH and QR-G2-COOH against wild-type mouse malignant astrocytoma DBT (wt-DBT) cells was investigated using a hemocytometer-based trypan blue dye exclusion method.

Data set [2] in a line: Photostability: NIR absorbance under ambient light. Type of data set: physicochemical. To be noted: for decrease of absorbance after exposure to ambient light: 2 hours, absorption maximum wavelength; for NIR absorbance remaining: 31 days ambient light; for photostability compared with ICG: ambient light. On the procedure: FIG. 3 is a graph showing the photostability of QR-G1-COOH, QR-G2-COOH and ICG in DMSO. Samples were exposed to the ambient light and the change of optical density at absorption maximum wavelength was monitored over time. All samples have the initial absorbance of about 1.2 at the absorption maximum wavelength. The signals were normalized against the values at 0 hour.
To evaluate the photostability of QR-G1-COOH and QR-G2-COOH, the NIR absorbance of these molecules exposed to ambient light was monitored and the results were compared with that of the FDA approved NIR dye, indocyanine green (ICG).

Data set [3] is described as follows: UV-vis absorption and emission spectra (photophysical properties). Type of data set: physicochemical. To be noted: DMSO; for Fluorescence quantum yield Φ: ICG in methanol as standard.
Assay in data set [4]: as above
The format is physicochemical. From the text:
FIG. […]
Similar observations have been reported on extended perylenediimides. […] This fluorescence enhancement in pluronic compared to water can be explained by the disruption of the non-fluorescent dye aggregates by pluronic, which formed micelles with dye monomers inside. The strong absorption in the NIR region and weak emission may render QR-G1-COOH to a promising photoacoustic imaging agent.

A short description of data set [5]: Solubility / hydrophilicity observations. Type of data set: physicochemical. To be noted: for hydrophilicity: as sodium salts. From the text: The most challenging step encountered during the synthesis of QR-G1-COOH and QR-G2-COOH was the ring cyclization of biperylene 6. Many quaterrylenes reported were synthesized through a base-assisted cyclodehydrogenation reaction using molten KOH/glucose, tert-BuOK/DBN in diglyme, or K2CO3 in ethanolamine. However, these reaction systems are not applicable for the synthesis of quaterrylene 7 because of the high reactivity of aldehyde under the harsh basic conditions. Recently, Müllen's group reported milder conditions for the preparation of uaterrylenedicarboximides and rylenediimides by the Lewis acids FeCl3/CH3NO2 and AlCl3/chlorobenzene. […] The following reduction of aldehyde groups on 7 by NaBH4 yielded benzyl alcohol 8 with a relatively low yield (32%). Coupling quaterrylene 8 with dendrons 9 and 10 provided the dendrimers QR-G1-triester and QR-G2-triester in 35% and 28% yields after purification by column chromatography.

Consider `C[S+](C)[O-]` [DMSO, reference compound], for which the “live cells (positive control group)” value in data set [1] (wt-DBT cells, 5% DMSO, after 48 h) was found to be 66.9%.

For `CC(C)c1cccc(C(C)C)c1N1C(=O)c2cc(Oc3ccc(COC(=O)CCC(=O)NC(CCC(=O)NC(CCC(=O)O)(CCC(=O)O)CCC(=O)O)(CCC(=O)NC(CCC(=O)O)(CCC(=O)O)CCC(=O)O)CCC(=O)NC(CCC(=O)O)(CCC(=O)O)CCC(=O)O)cc3)c3c4ccc5c6ccc7c8c(Oc9ccc(COC(=O)CCC(=O)NC(CCC(=O)NC(CCC(=O)O)(CCC(=O)O)CCC(=O)O)(CCC(=O)NC(CCC(=O)O)(CCC(=O)O)CCC(=O)O)CCC(=O)NC(CCC(=O)O)(CCC(=O)O)CCC(=O)O)cc9)cc9c%10c(cc(Oc%11ccc(COC(=O)CCC(=O)NC(CCC(=O)NC(CCC(=O)O)(CCC(=O)O)CCC(=O)O)(CCC(=O)NC(CCC(=O)O)(CCC(=O)O)CCC(=O)O)CCC(=O)NC(CCC(=O)O)(CCC(=O)O)CCC(=O)O)cc%11)c(c%11ccc(c%12ccc(c%13c(Oc%14ccc(COC(=O)CCC(=O)NC(CCC(=O)NC(CCC(=O)O)(CCC(=O)O)CCC(=O)O)(CCC(=O)NC(CCC(=O)O)(CCC(=O)O)CCC(=O)O)CCC(=O)NC(CCC(=O)O)(CCC(=O)O)CCC(=O)O)cc%14)cc(c2c3%13)C1=O)c4c5%12)c6c7%11)c%108)C(=O)N(c1c(C(C)C)cccc1C(C)C)C9=O` [QR-G2-COOH], in data set [2] (DMSO), the “decrease of absorbance after exposure to ambient light” value (from here on “decrease of absorbance after exposure”) is listed as “no significant absorbance change” and the NIR absorbance remaining is 77%. For the same molecule, the “absorbance change after illumination” value in data set [2] (DMSO, 3 days ambient light) was 3%. Besides, the “photostability compared with ICG” value in data set [2] is reported as “dramatically more photostable than ICG”. Besides, in data set [3], the λem was 816 nm and the “Fluorescence quantum yield Φ” value amounted to 0.32%. Also, in data set [1], the “cytotoxicity to DBT cells” value is listed as “low cytotoxicity”. Also, the cell viability result in data set [1] (wt-DBT cells) is listed as “about 90%”. The “quantum yield relative to QR-G1-COOH” value in data set [4] (Table 1) is recorded as “roughly two times higher”. In addition, the “ε (molar extinction coefficient)” value in data set [4] (methanol) was determined as 121000 M⁻¹ cm⁻¹. Also, in data set [4] (methanol, excited at 720 nm), the λem stood at 815 nm. The ε in data set [4] (methanol, values in order of the listed absorption bands) is on record as 1.21 10^5 M^−1 cm^−1. Further, in data set [4] (water), the ε is reported as 0.56 10^5 M^−1 cm^−1 and the λabs is 743 nm. The λem in data set [4] (water, pluronic ~10 wt %/wt) is listed as 809 nm. Besides, in data set [5], the hydrophilicity entry is on record as “high hydrophilicity”.

Regarding `CC1(C)C(/C=C/C=C/C=C/C=C2\N(CCCCS(=O)(=O)O)c3ccc4ccccc4c3C2(C)C)=[N+](CCCCS(=O)(=O)[O-])c2ccc3ccccc3c21` [ICG, indocyanine green, reference compound], the “decrease of absorbance after exposure” value in data set [2] (DMSO) came out at 48%. Moreover, the “absorbance observed after illumination” value in data set [2] (DMSO, 3 days ambient light) is “no significant absorbance”.

In the case of `CC(C)c1cccc(C(C)C)c1N1C(=O)c2cc(Oc3ccc(COC(=O)CCC(=O)NC(CCC(=O)O)(CCC(=O)O)CCC(=O)O)cc3)c3c4ccc5c6ccc7c8c(Oc9ccc(COC(=O)CCC(=O)NC(CCC(=O)O)(CCC(=O)O)CCC(=O)O)cc9)cc9c%10c(cc(Oc%11ccc(COC(=O)CCC(=O)NC(CCC(=O)O)(CCC(=O)O)CCC(=O)O)cc%11)c(c%11ccc(c%12ccc(c%13c(Oc%14ccc(COC(=O)CCC(=O)NC(CCC(=O)O)(CCC(=O)O)CCC(=O)O)cc%14)cc(c2c3%13)C1=O)c4c5%12)c6c7%11)c%108)C(=O)N(c1c(C(C)C)cccc1C(C)C)C9=O` [QR-G1-COOH], in data set [2] (DMSO), the “decrease of absorbance after exposure” value is on record as “no significant absorbance change” and the NIR absorbance remaining amounted to 85%. Moreover, the “absorbance change after illumination” value in data set [2] (DMSO, 3 days ambient light) is listed as 1%. Further, in data set [2], the “photostability compared with ICG” value is “dramatically more photostable than ICG”. In data set [3], the λem is listed as 816 nm and the “Fluorescence quantum yield Φ” value was found to be 0.11%. In addition, the “cytotoxicity to DBT cells” value in data set [1] is “low cytotoxicity”. Moreover, in data set [1] (wt-DBT cells), the cell viability result is “about 90%”. In data set [4] (0.4% wt/wt of pluronic), the “fluorescence in pluronic compared to water” value is “large fluorescence enhancement”. Further, in data set [4] (methanol), the “ε (molar extinction coefficient)” value was 146000 M⁻¹ cm⁻¹ and 143000 M⁻¹ cm⁻¹; the λabs was 771 nm and 728 nm. The molecule further came in with a λem in data set [4] (methanol, excited at 720 nm) of 813 nm. In addition, in data set [4] (water), the ε was 0.74 10^5 M^−1 cm^−1 and the λabs was 739 nm. For the same molecule, in data set [4] (water, pluronic ~0.4 wt %/wt), the λem came out at 807 nm. Besides, the fluorescence in water entry in data set [4] (water, excited at 720 nm) is recorded as “nearly no fluorescence”. In data set [5], the hydrophilicity entry was “high hydrophilicity”.

Turning to `CC(C)c1cccc(C(C)C)c1N1C(=O)c2cc(Oc3ccc(COC(=O)CCC(=O)NC(CCC(=O)OC(C)(C)C)(CCC(=O)OC(C)(C)C)CCC(=O)OC(C)(C)C)cc3)c3c4ccc5c6ccc7c8c(Oc9ccc(COC(=O)CCC(=O)NC(CCC(=O)OC(C)(C)C)(CCC(=O)OC(C)(C)C)CCC(=O)OC(C)(C)C)cc9)cc9c%10c(cc(Oc%11ccc(COC(=O)CCC(=O)NC(CCC(=O)OC(C)(C)C)(CCC(=O)OC(C)(C)C)CCC(=O)OC(C)(C)C)cc%11)c(c%11ccc(c%12ccc(c%13c(Oc%14ccc(COC(=O)CCC(=O)NC(CCC(=O)OC(C)(C)C)(CCC(=O)OC(C)(C)C)CCC(=O)OC(C)(C)C)cc%14)cc(c2c3%13)C1=O)c4c5%12)c6c7%11)c%108)C(=O)N(c1c(C(C)C)cccc1C(C)C)C9=O` [QR-G1-triester], the “solubility in organic solvents” value in data set [5] (toluene, dichloromethane, chloroform, ethyl acetate, methanol) was “highly soluble”.
